Test results taken from US12264134B2 (Merck Sharp & Dohme LLC, priority 2018, dated 2025).
pIC50: −log10 of the molar value.

Key:
IDO1 [1] = target: T1, IDO1 (Homo sapiens, UniProt P14902); experiment: IDO1 Human Whole blood Assay; format: cell-based; parameters: Human whole blood was drawn in sodium heparin coated tubes from healthy internal donors; from tissue; host or cells: human whole blood from healthy donors, stimulated with LPS and IFNγ; conditions: LPS and IFNγ stimulated, 18 h, read-out: Human Whole Blood Potency, IC50
T1 sequence (P14902 whole entry): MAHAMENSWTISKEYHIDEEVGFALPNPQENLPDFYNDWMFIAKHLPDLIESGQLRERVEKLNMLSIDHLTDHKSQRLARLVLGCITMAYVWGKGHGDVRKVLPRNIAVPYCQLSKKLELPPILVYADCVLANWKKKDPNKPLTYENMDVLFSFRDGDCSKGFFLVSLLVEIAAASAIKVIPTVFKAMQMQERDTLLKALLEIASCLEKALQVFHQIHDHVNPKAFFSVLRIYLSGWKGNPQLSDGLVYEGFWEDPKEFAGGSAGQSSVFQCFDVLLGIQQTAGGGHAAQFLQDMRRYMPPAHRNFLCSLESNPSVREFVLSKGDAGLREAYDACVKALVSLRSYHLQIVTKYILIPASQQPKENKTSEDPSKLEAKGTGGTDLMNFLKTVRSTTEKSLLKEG
In short: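 LC/MS/MS of kynurenine, normalized to spiked isotope-labeled standard (3 μM final), served as the readout. Beforehand, fresh human blood with compound (15 min preincubation) was stimulated overnight (18 h, 37 °C) with 100 ng/mL LPS/IFNγ. IC50 was obtained by four-parameter curve fitting.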

IDO1 [2] = target: T1, IDO1; experiment: IDO1 Cellular Assay in HeLa Cells Stimulated with IFNγ; format: cell-based; conditions: read-out: HeLa Cell Potency, IC50

| SMILES | pIC50 (IDO1 [1]) | pIC50 (IDO1 [2]) |
| --- | --- | --- |
| CC(=O)NC1CCN(C(=O)c2nn(CC(=O)N3CCN(c4ccc(F)c(C)c4C)CC34CC4)c3c2[C@@H]2C[C@@H]2C3)CC1 [Example 320, N-{1-[(3bR,4aR)-1-{2-[7-(4-fluoro-2,3-dimethylphenyl)-4,7-diazaspiro[2.5]octan-4-yl]-2-oxoethyl}-3b,4,4a,5-tetrahydro-1H-cyclopropa[3,4]cyclopenta[1,2-c]pyrazole-3-carbonyl]piperidin-4-yl}acetamide] | 6.46 | 8.88 |
| Cc1c(F)ccc(N2CCN(C(=O)Cn3nc(C(=O)N4CCC(OCCO)CC4)c4c3C[C@H]3C[C@@H]43)C3(CC3)C2)c1C [Example 321, 1-[7-(4-fluoro-2,3-dimethylphenyl)-4,7-diazaspiro[2.5]octan-4-yl]-2-{(3bR,4aR)-3-[4-(2-hydroxyethoxy)piperidine-1-carbonyl]-3b,4,4a,5-tetrahydro-1H-cyclopropa[3,4]cyclopenta[1,2-c]pyrazol-1-yl}ethan-1-one] | 6.29 | 8.83 |
| Cc1c(F)ccc(N2CCN(C(=O)Cn3nc(C(=O)N4CCN(CC(N)=O)CC4)c4c3C[C@H]3C[C@@H]43)C3(CC3)C2)c1C [Example 322, 2-{4-[(3bR,4aR)-1-{2-[7-(4-fluoro-2,3-dimethylphenyl)-4,7-diazaspiro[2.5]octan-4-yl]-2-oxoethyl}-3b,4,4a,5-tetrahydro-1H-cyclopropa[3,4]cyclopenta[1,2-c]pyrazole-3-carbonyl]piperazin-1-yl}acetamide] | 5.98 | 8.80 |
| Cc1c(F)ccc(N2CCN(C(=O)Cn3nc(C(=O)N4CCC(O)(CO)CC4)c4c3C[C@H]3C[C@@H]43)C3(CC3)C2)c1C [Example 323, 1-[7-(4-fluoro-2,3-dimethylphenyl)-4,7-diazaspiro[2.5]octan-4-yl]-2-{(3bR,4aR)-3-[4-hydroxy-4-(hydroxymethyl)piperidine-1-carbonyl]-3b,4,4a,5-tetrahydro-1H-cyclopropa[3,4]cyclopenta[1,2-c]pyrazol-1-yl}ethan-1-one] | 5.74 | 9.16 |
| Cc1cccc(N2CCN(C(=O)Cn3nc(C(=O)N4CCC(O)C(F)C4)c4c3CCC4)C3(CC3)C2)c1C (stereo not drawn) [Example 325, 1-[7-(2,3-dimethylphenyl)-4,7-diazaspiro[2.5]octan-4-yl]-2-[3-(3-fluoro-4-hydroxy-piperidine-1-carbonyl)-5,6-dihydro-4H-cyclopenta[c]pyrazol-1-yl]ethanone] | 6.20 | 8.39 |
| Cc1cccc(N2CCN(C(=O)Cn3nc(C(=O)N4CC[C@H](O)[C@H](F)C4)c4c3C[C@H]3C[C@@H]43)C(C)(C)C2)c1C [Example 331, 1-[4-(2,3-dimethylphenyl)-2,2-dimethylpiperazin-1-yl]-2-{(3bR,4aR)-3-[(3R,4S)-3-fluoro-4-hydroxypiperidine-1-carbonyl]-3b,4,4a,5-tetrahydro-1H-cyclopropa[3,4]cyclopenta[1,2-c]pyrazol-1-yl}ethan-1-one] | 5.04 | 7.07 |
| Cc1cccc(N2CCN(C(=O)Cn3nc(C(=O)N4CCC(O)(CF)CC4)c4c3C[C@H]3C[C@@H]43)C(C)(C)C2)c1C [Example 332, 1-[4-(2,3-dimethylphenyl)-2,2-dimethylpiperazin-1-yl]-2-{(3bR,4aR)-3-[4-(fluoromethyl)-4-hydroxypiperidine-1-carbonyl]-3b,4,4a,5-tetrahydro-1H-cyclopropa[3,4]cyclopenta[1,2-c]pyrazol-1-yl}ethan-1-one] | 5.02 | 7.16 |
| Cc1cccc(N2CCN(C(=O)Cn3nc(C(=O)N4CCC5(CO)CC4C5)c4c3C[C@H]3C[C@@H]43)C(C)(C)C2)c1C [Example 333, 1-[4-(2,3-dimethylphenyl)-2,2-dimethylpiperazin-1-yl]-2-{(3bR,4aR)-3-[5-(hydroxymethyl)-2-azabicyclo[3.1.1]heptane-2-carbonyl]-3b,4,4a,5-tetrahydro-1H-cyclopropa[3,4]cyclopenta[1,2-c]pyrazol-1-yl}ethan-1-one] | < 5.00 | 8.06 |
| Cc1cccc(N2CCN(C(=O)Cn3nc(C(=O)N4CCC(O)CC4)c4c3C[C@H]3C[C@@H]43)[C@@H](C)C2)c1C [Example 334, 1-[(2S)-4-(2,3-dimethylphenyl)-2-methylpiperazin-1-yl]-2-[(3bR,4aR)-3-(4-hydroxypiperidine-1-carbonyl)-3b,4,4a,5-tetrahydro-1H-cyclopropa[3,4]cyclopenta[1,2-c]pyrazol-1-yl]ethan-1-one] | 5.39 | 8.86 |
| Cc1cccc(N2CCN(C(=O)Cn3nc(C(=O)N4CCC(O)CC4)c4c3C[C@H]3C[C@@H]43)[C@H](C)C2)c1C [Example 335, 1-[(2R)-4-(2,3-dimethylphenyl)-2-methylpiperazin-1-yl]-2-[(3bR,4aR)-3-(4-hydroxypiperidine-1-carbonyl)-3b,4,4a,5-tetrahydro-1H-cyclopropa[3,4]cyclopenta[1,2-c]pyrazol-1-yl]ethan-1-one] | 6.23 | 8.56 |
| Cc1c(N2CCN(C(=O)Cn3nc(C(=O)N4CCC(O)CC4)c4c3C[C@H]3C[C@@H]43)CC2)cccc1C(F)(F)F [Example 338, 2-((3bR,4aR)-3-(4-hydroxypiperidine-1-carbonyl)-3b,4,4a,5-tetrahydro-1H-cyclopropa[3,4]cyclopenta[1,2-c]pyrazol-1-yl)-1-(4-(2-methyl-3-(trifluoromethyl)phenyl)piperazin-1-yl)ethanone] | 6.88 | 8.78 |
| Cc1c(N2CCN(C(=O)Cn3nc(C(=O)N4CC[C@@H](O)[C@@H](F)C4)c4c3C[C@H]3C[C@@H]43)CC2)cccc1C(F)(F)F [Example 339, 2-((3bR,4aR)-3-((3S,4R)-3-fluoro-4-hydroxypiperidine-1-carbonyl)-3b,4,4a,5-tetrahydro-1H-cyclopropa[3,4]cyclopenta[1,2-c]pyrazol-1-yl)-1-(4-(2-methyl-3-(trifluoromethyl)phenyl)piperazin-1-yl)ethanone] | 6.64 | 8.74 |
| Cc1c(Cl)cccc1N1CCN(C(=O)Cn2nc(C(=O)N3CCN(C(=O)CO)CC3)c3c2C[C@H]2C[C@@H]32)CC1 [Example 352, 1-(4-(3-chloro-2-methylphenyl)piperazin-1-yl)-2-((3bR,4aR)-3-(4-(2-hydroxyacetyl)piperazine-1-carbonyl)-3b,4,4a,5-tetrahydro-1H-cyclopropa[3,4]cyclopenta[1,2-c]pyrazol-1-yl)ethanone] | 7.10 | 8.93 |
| Cc1cccc(N2CCN(C(=O)Cn3nc(C(=O)N4CCN(C(=O)CO)CC4)c4c3C[C@H]3C[C@@H]43)C3(CC3)C2)c1C [Example 355, 1-(4-((3bR,4aR)-1-(2-(7-(2,3-dimethylphenyl)-4,7-diazaspiro[2.5]octan-4-yl)-2-oxoethyl)-3b,4,4a,5-tetrahydro-1H-cyclopropa[3,4]cyclopenta[1,2-c]pyrazole-3-carbonyl)piperazin-1-yl)-2-hydroxyethanone] | 6.08 | 9.03 |
| Cc1cccc(N2CCN(C(=O)Cn3nc(C(=O)N4CCC(O)CC4)c4c3C[C@H]3C[C@@H]43)C3(CC3)C2)c1C [Example 357, 1-(7-(2,3-dimethylphenyl)-4,7-diazaspiro[2.5]octan-4-yl)-2-((3bR,4aR)-3-(4-hydroxypiperidine-1-carbonyl)-3b,4,4a,5-tetrahydro-1H-cyclopropa[3,4]cyclopenta[1,2-c]pyrazol-1-yl)ethanone] | 5.73 | 9.05 |
| Cc1cccc(N2CCN(C(=O)Cn3nc(C(=O)N4CCO[C@@H](CO)C4)c4c3C[C@H]3C[C@@H]43)C3(CC3)C2)c1C [Example 360, 1-(7-(2,3-dimethylphenyl)-4,7-diazaspiro[2.5]octan-4-yl)-2-((3bR,4aR)-3-((R)-2-(hydroxymethyl)morpholine-4-carbonyl)-3b,4,4a,5-tetrahydro-1H-cyclopropa[3,4]cyclopenta[1,2-c]pyrazol-1-yl)ethanone] | 5.41 | 8.93 |
| Cc1cccc(N2CCN(C(=O)Cn3nc(C(=O)N4CCC(F)(CO)CC4)c4c3C[C@H]3C[C@@H]43)C3(CC3)C2)c1C [Example 362, 1-(7-(2,3-dimethylphenyl)-4,7-diazaspiro[2.5]octan-4-yl)-2-((3bR,4aR)-3-(4-fluoro-4-(hydroxymethyl)piperidine-1-carbonyl)-3b,4,4a,5-tetrahydro-1H-cyclopropa[3,4]cyclopenta[1,2-c]pyrazol-1-yl)ethanone] | 6.47 | 9.10 |
| Cc1c(Cl)cccc1N1CCN(C(=O)Cn2nc(C(=O)N3CCC(O)CC3)c3c2CCC(F)C3)CC1 (stereo not drawn) [Example 366, 1-(4-(3-chloro-2-methylphenyl)piperazin-1-yl)-2-(5-fluoro-3-(4-hydroxypiperidine-1-carbonyl)-4,5,6,7-tetrahydro-1H-indazol-1-yl)ethan-1-one] | 6.85 | 8.63 |
| Cc1c(Cl)cccc1N1CCN(C(=O)Cn2nc(C(=O)N3CCC(O)CC3)c3c2CCC(F)(F)C3)CC1 [Example 379, 1-(4-(3-chloro-2-methylphenyl)piperazin-1-yl)-2-(5,5-difluoro-3-(4-hydroxypiperidine-1-carbonyl)-4,5,6,7-tetrahydro-1H-indazol-1-yl)ethan-1-one] | 6.76 | 8.49 |
| CC(=O)NC1CCN(C(=O)c2nn(CC(=O)N3CCN(c4cccc(Cl)c4C)CC3)c3c2CC(F)(F)CC3)CC1 [Example 380, N-(1-(1-(2-(4-(3-chloro-2-methylphenyl)piperazin-1-yl)-2-oxoethyl)-5,5-difluoro-4,5,6,7-tetrahydro-1H-indazole-3-carbonyl)piperidin-4-yl)acetamide] | 7.03 | 8.78 |
| Cc1c(Cl)cccc1N1CCN(C(=O)Cn2nc(C(=O)N3CC[C@H](O)[C@H](F)C3)c3c2CCC(F)(F)C3)CC1 [Example 381] | 6.22 | 8.31 |
